Measurements: patent US20250257059A1, “PROTEIN TYROSINE PHOSPHATASE INHIBITORS AND USES THEREOF” (Nerio Therapeutics, Inc., priority 2022, published 2025)
Read-outs that look alike come from different tables or passages of the source.

Assays:
[1] = tested on: murine B16F10 melanoma cell line; assay: B16F10 IFNγ-induced cellular growth inhibition assay (xCELLigence RTCA); format: cell-based; settings: B16F10 cells, 1 ng/mL mouse IFNγ, AUC of growth curve, read-out: B16 IFNγ Mediated Growth Inhibition Assay: AVG IC50
Experimental: Compound activity was determined using an interferon gamma (IFNγ)-induced cellular growth inhibition assay with the murine B16F10 melanoma cell line on an Agilent xCELLigence Real-Time Cell Analysis platform (RTCA). RTCA E-Plate View 96 plates (Agilent, 300601010) were pre-equilibrated with 50 μL of assay media (DMEM+10% FBS, Gibco 10566-024, Gibco 10082-147) at 37° C. in a humidified incubator before taking an initial measurement of impedance (sweep). B16F10 cells cultured in assay media were dissociated with TrypLE Express (Gibco 12605-010) for five minutes at 37° C., diluted in 3 volumes of assay buffer, centrifuged for 5 minutes at 500×g at room temperature before diluting cells to 7,700 cells/mL in assay media, plating 130 μL/well (1,000 cells/well) in the inner 60 wells of the assay plate, and adding 150 μL of assay media to the outer wells of the plate. Cells were incubated at room temperature for 20 min to allow cells to settle before placing them in the xCELLigence reader and incubating overnight at 37° C., sweeping wells every 15 minutes. After 24 hours, well readings were paused, plates were removed from the incubator and compounds were added using a Tecan D300e dispenser. All wells were normalized to a final concentration of 0.5% DMSO. Following a 30 min incubation at 37° C., recombinant mouse IFNγ (R&D Systems™ 485MI100) was diluted to 10 ng/mL in assay media and 20 μL was added to assay wells (1 ng/mL final concentration). Assay plates were placed in the xCELLigence reader and swept every 15 minutes.

[2] = molecular target: full-length human PTPN2 (TC45) (1-387) (Homo sapiens (Human), UniProt P17706); assay: Enzymatic assay used to determine potency of PTPN2 inhibitors (full length PTPN2 DiFMUP assay); format: biochemical; settings: 0.5 nM PTPN2, 100 μM DiFMUP, 30 min at room temperature
Chain of full-length human PTPN2 (TC45) (1-387) (P17706 other isoform, or with tags, fused parts or gaps): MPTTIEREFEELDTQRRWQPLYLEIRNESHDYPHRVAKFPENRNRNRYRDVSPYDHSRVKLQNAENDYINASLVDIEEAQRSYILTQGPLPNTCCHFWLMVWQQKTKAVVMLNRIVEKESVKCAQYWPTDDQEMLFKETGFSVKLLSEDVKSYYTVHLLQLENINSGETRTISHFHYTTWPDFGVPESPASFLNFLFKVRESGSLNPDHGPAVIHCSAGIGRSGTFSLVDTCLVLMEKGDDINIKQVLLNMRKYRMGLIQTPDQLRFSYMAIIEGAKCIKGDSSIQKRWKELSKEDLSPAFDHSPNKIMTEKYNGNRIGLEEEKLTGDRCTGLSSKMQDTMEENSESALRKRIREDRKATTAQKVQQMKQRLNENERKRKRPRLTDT
Experimental: Compound activity was determined in an in vitro enzymatic assay using untagged, full-length human PTPN2 (TC45) (1-387) protein. PTPN2 was produced in E. coli as a GST-TEV fusion and the GST was removed by TEV digestion, followed by additional purification to yield full-length PTPN2 (SEQ ID 1). PTPN2 enzyme was diluted in assay buffer (50 mM HEPES pH7.5, 0.2 mM EDTA, 1 mM DTT, 0.02% Brij-35, 0.02% BSA) to a final concentration of 0.5 nM and added to black 384-well non-binding plates (Greiner, 781900). Compounds were subsequently added using a Tecan D300e dispenser. Following a 10 min incubation at room temperature, DiFMUP substrate (ThermoFisher, D22065) was added to a final concentration of 100 μM. Plates were transferred to a SpectraMax plate reader (Molecular Devices) and fluorescence intensity was measured (ex 358, em 455) after a 30 min incubation at room temperature. […] A four-parameter curve fit was used to determine IC50 values from % inhibition data.

| Structure (SMILES) | IC50 ([1]; Mus musculus, B16-F10, 48 h) [nM] | IC50 [2] [nM] | IC50 ([1]; 48 hours) [nM] |
| --- | --- | --- | --- |
| CC(C)CCN1CCCC1CCc1cc(O)c(N2CC(=O)NS2(=O)=O)c(F)c1 (stereo not drawn) [Example 67] | > 100000 | 36 |  |
| O=C1CN(c2c(O)cc(CCN3CCC(F)C3)cc2F)S(=O)(=O)N1 (stereo not drawn) [Example 92] | 504 | 3 |  |
| O=C1CN(c2c(O)cc(CC3CCN(Cc4ncco4)C3)cc2F)S(=O)(=O)N1 (stereo not drawn) [Example 6] | > 100000 | 20 |  |
| CCN1CCCC(Cc2cc(O)c(N3CC(=O)NS3(=O)=O)c(F)c2)C1 (stereo not drawn) [Example 51] | 27600 | 63 |  |
| O=C1CN(c2c(O)cc(CC3CCN(CCN4CCCCC4)C3)cc2F)S(=O)(=O)N1 (stereo not drawn) [Example 5] | 84600 | 7 |  |
| CC(C)C1CN(CCc2cc(O)c(N3CC(=O)NS3(=O)=O)c(F)c2)C1 [Example 132] |  | 3 | 579 |
| O=C1CN(c2c(O)cc(CCN3CC4(CCC4)C3)cc2F)S(=O)(=O)N1 [Example 124] | 943 | 2 |  |
| O=C1CN(c2c(O)cc(CCN3CC(CF)C3)cc2F)S(=O)(=O)N1 [Example 141] | 370 | 3 |  |
| CC1(C)CCN(CCc2cc(O)c(N3CC(=O)NS3(=O)=O)c(F)c2)CC1 [Example 93] | 475 | 3 |  |
| O=C1CN(c2c(O)cc(CCN3CCC4(CC3)CC4)cc2F)S(=O)(=O)N1 [Example 107] | 256 | 2 |  |
| O=C1CN(c2c(O)cc(CCN3CC[C@@H](F)C3)cc2F)S(=O)(=O)N1 [Example 95] | 432 | 2 |  |
| O=C1CN(c2c(O)cc(CC3CCCN(CC4CC4)C3)cc2F)S(=O)(=O)N1 (stereo not drawn) [Example 37] | 46400 | 66 |  |
| CC(C)CC1CCN(CCc2cc(O)c(N3CC(=O)NS3(=O)=O)c(F)c2)C1 (stereo not drawn) [Example 85] | 331 | 2 |  |
| O=C1CN(c2c(O)cc(CC3CCN(Cc4ncc[nH]4)C3)cc2F)S(=O)(=O)N1 (stereo not drawn) [Example 17] | > 52000 | 7 |  |
| CCCCN1CCC(Cc2cc(O)c(N3CC(=O)NS3(=O)=O)c(F)c2)C1 (stereo not drawn) [Example 8] | 18600 | 88 |  |
| CCCC1NCCC1Cc1cc(O)c(N2CC(=O)NS2(=O)=O)c(F)c1 (stereo not drawn) [Example 28] | > 57000 | 23 |  |
| O=C1CN(c2c(O)cc(CC3CCCN(CCC4CCOCC4)C3)cc2F)S(=O)(=O)N1 (stereo not drawn) [Example 40] | 38600 | 46 |  |
| CCC1CN(CCc2cc(O)c(N3CC(=O)NS3(=O)=O)c(F)c2)C1 [Example 126] | 775 | 3 |  |
| O=C1CN(c2c(O)cc(CCN3CCCC3)cc2F)S(=O)(=O)N1 [Example 83, 5-(2-fluoro-6-hydroxy-4-(2-(pyrrolidin-1-yl)ethyl)phenyl)-1,2,5-thiadiazolidin-3-one 1,1-dioxide] | 674 | 3 |  |
| CN1CCCC(Cc2cc(O)c(N3CC(=O)NS3(=O)=O)c(F)c2)CC1 (stereo not drawn) [Example 60] | > 73000 | 24 |  |
| CCCN1CCCC(Cc2cc(O)c(N3CC(=O)NS3(=O)=O)c(F)c2)C1 (stereo not drawn) [Example 49] | > 38000 | 96 |  |

| Structure (SMILES) | IC50 ([1]; Mus musculus, B16-F10, 48 h) [nM] | IC50 [2] [nM] | IC50 ([1]; 48 hours) [nM] |
| --- | --- | --- | --- |
| CC1(F)CCN(CCc2cc(O)c(N3CC(=O)NS3(=O)=O)c(F)c2)C1 (stereo not drawn) [Example 106] | 256 | 2 |  |
| O=C1CN(c2c(O)cc(CC3CCCN(Cc4ccco4)C3)cc2F)S(=O)(=O)N1 (stereo not drawn) [Example 46] | > 100000 | 75 |  |
| O=C1CN(c2c(O)cc(CC3CCCN(CC4CCCO4)C3)cc2F)S(=O)(=O)N1 (stereo not drawn) [Example 43] | 95900 | 63 |  |
| O=C1CN(c2c(O)cc(CC3CCCN(Cc4cn[nH]c4)C3)cc2F)S(=O)(=O)N1 (stereo not drawn) [Example 42] | > 100000 | 12 |  |
| CCCC1CCN(CCc2cc(O)c(N3CC(=O)NS3(=O)=O)c(F)c2)C1 (stereo not drawn) [Example 86] | 651 | 4 |  |
| C[C@H]1CCN(CCc2cc(O)c(N3CC(=O)NS3(=O)=O)c(F)c2)C1 [Example 139] | 509 | 2 |  |
| O=C1CN(c2c(O)cc(CCN3CCC(C4CCC4)CC3)cc2F)S(=O)(=O)N1 [Example 121] | 2830 | 2 |  |
| O=C1CN(c2c(O)cc(CCN3CCC(C(F)(F)F)C3)cc2F)S(=O)(=O)N1 (stereo not drawn) [Example 96] | 680 | 2 |  |
| CC(C)(C)C1CCN(CCc2cc(O)c(N3CC(=O)NS3(=O)=O)c(F)c2)CC1 [Example 118] | 3220 | 3 |  |
| CCCCCCN1CCCC(Cc2cc(O)c(N3CC(=O)NS3(=O)=O)c(F)c2)C1 (stereo not drawn) [Example 36] | 81000 | 22 |  |
| O=C1CN(c2c(O)ccc(CC3CCCCN3CCC(F)(F)F)c2F)S(=O)(=O)N1 (stereo not drawn) [Example 77] | > 100000 | 4 |  |
| CC(C)N1CCC(Cc2cc(O)c(N3CC(=O)NS3(=O)=O)c(F)c2)C1 (stereo not drawn) [Example 2] | 28200 | 14 |  |
| O=C1CN(c2c(O)cc(CCN3CCC(O)CC3)cc2F)S(=O)(=O)N1 [Example 101] | 1690 | 2 |  |
| CC(C)CN1CCC(Cc2cc(O)c(N3CC(=O)NS3(=O)=O)c(F)c2)C1 (stereo not drawn) [Example 9] | 13200 | 21 |  |
| CC(C)CCN1CCC(CCc2cc(O)c(N3CC(=O)NS3(=O)=O)c(F)c2)C1 (stereo not drawn) [Example 64] | > 100000 | 89 |  |
| CN(C)CCN1CCC(Cc2cc(O)c(N3CC(=O)NS3(=O)=O)c(F)c2)C1 (stereo not drawn) [Example 3] | > 100000 | 3 |  |
| O=C1CN(c2c(O)cc(CC3CCN(CC4CC4)C3)cc2F)S(=O)(=O)N1 (stereo not drawn) [Example 10] |  | 50 | 17400 |
| O=C1CN(c2c(O)cc(CC3CCCN(Cc4ccoc4)C3)cc2F)S(=O)(=O)N1 (stereo not drawn) [Example 45] | 55400 | 30 |  |
| CC[C@@H]1CCN(CCc2cc(O)c(N3CC(=O)NS3(=O)=O)c(F)c2)C1 [Example 110] | 127 | 2 |  |
| O=C1CN(c2c(O)cc(CC3CCCN(CC4CCC4)C3)cc2F)S(=O)(=O)N1 (stereo not drawn) [Example 32] | 14800 | 35 |  |
| CC1(C)CCN(CCc2cc(O)c(N3CC(=O)NS3(=O)=O)c(F)c2)C1 [Example 108] | 129 | 2 |  |
